What was measured:
[1] = system: Jurkat cells; experiment: SynFinger library screen: CD69 expression of CRASH-IT (Zap70-PD1-degron) transduced Jurkat cells with or without lenalidomide, enrichment index from NGS reads; type: cell-based; parameters: key to EI / EI index (enrichment index): enrichment index; low EI = SynFinger with desired properties; conditions: for EI index (enrichment index): Table 6, dual substitutions in first hybrid zinc finger domain, Jurkat, 50 nM lenalidomide vs mock, CD69-HI/CD69-LO, low EI = desired
Text: […] Jurkat cells were transduced with the SynFinger library (SynFinger containing CRASH-IT switches) at a 12.8% transduction efficiency and sorted for high EGFP expression to enrich transduced cells. For quality control of the SynFinger transduced Jurkat cells, SynFinger sequences were amplified and analyzed by NGS. 10 randomly selected SynFinger encoding DNA sequences or DNA sequences encoding the same SynFinger amino acid sequences but contain 2 nucleotide mismatches due to alternative codon usage were used to assess ability to distinguish true SynFinger sequences from noise in the NGS data. 10/10 SynFinger encoding full-nucleotide sequence match sequences were observed within NGS data whereas the 2 nucleotide mismatch containing sequences were not detected.
Jurkat cells expressing the SynFinger library were treated with 50 nM lenalidomide (a suboptimal dose that activates only ˜50% of cells expressing a CRASH-IT switch containing the parental double hybrid degron in Jurkat cells, as compared to a maximally effective 1000 nM lenalidomide dose) or were mock treated for 24 hours, and subsequently activated with anti-CD3/anti-CD28 antibodies in the presence or absence of 50 nM lenalidomide for 5 hours. Afterwards, cells were stained with IR dye (1:400) and anti-CD69-PE (1:200). Cells were sorted for live (IR dye negative), EGFP high end CD69 high (top 5%) or CD69 low (bottom 5%) expression using Aria Fusion cytometers.
Subsequently, cells were washed with PBS, and cell pellets were frozen at −20° C. until DNA extraction. Genomic DNA was isolated using the DNeasy Blood & Tissue Kit (Qiagen) according to the manufacturer's instructions, using 5×10^6 cells per column. DNA was eluted in 22 μl RNAse free water. Deep sequencing adapters and indexes were added to SynFinger encoding DNA sequences using PCR amplification. Briefly, 3 μg genomic DNA (20 μl), indexed forward and reverse primers (10 μM, 2.5 μl each) and 25 μl NEBNext® High-Fidelity 2×PCR Master Mix were added to the PCR reaction. An optimized PCR reaction (98° C. for 30 s, (98° C. for 10 s, 56° C. for 10 s, 72° C. for 5 s)×25 cycles, 72° C. for 3 min was performed using Eppendorf PCR cyclers.
Indexed PCR products were run on agarose gel, relative DNA concentrations were estimated by measuring band intensity, and 12 indexed PCR reaction products were mixed per MiSeq chip. To increase sequence diversity, samples were mixed with 25% PhiX DNA. In total, 2 MiSeq chips were used (100 bp, single read). To distinguish genuine SynFinger sequences from sequencing errors, results were filtered using a reference list of actual sequences used in SynFinger library design (100% codon match). Sequences with a very low number of reads (sum of all samples below 500 reads) were excluded from analysis.
To identify SynFingers that improve sensitivity of CRASH-IT switches towards lenalidomide while preserving or improving stringency of switch mediated control of T cell activation in the absence of lenalidomide, an enrichment index (EI) value was calculated for each sequence as described below, and SynFingers were ranked according to their EI, with a low EI indicating a SynFinger with desired properties.
CD69-HI and […] read counts from top 100 SynFingers were compared with read counts from the parental double hybrid degron using a two-sided Fisher's exact test to determine enrichment of CD69-HI cells in the presence of lenalidomide and enrichment of CD69-LO cells in the absence of lenalidomide.
To further improve the sensitivity of double hybrid degron towards IMiDs, we performed a high throughput screen using a library of ˜50,200 CRASH-IT variants that encode either single or double amino acid substitutions at the indicated positions of the first hybrid zinc finger sequence, thereby changing 18 amino acids of this zinc finger into any amino acid except cysteine (FIG. 3). […]

[2] = system: Primary human T cells; experiment: Cytokine production and degranulation of CDK4 TCR T cells with Zap70-Siglec11-degron CRASH-IT switch co-cultured with NKIRTIL006 melanoma cells, lenalidomide; type: cell-based; conditions: for cytokine production at very low lenalidomide concentration: 5 nM lenalidomide, as compared to double hybrid degron containing CRASH-IT switch
Text: FIG. 5: SynFingers fusion proteins enable sensitive control of immune cell functions. A subset of SynFingers identified in the SynFinger library screen were individually validated. (A-H) Primary human T cells were modified with the HLA class I restricted CDK4 TCR plus a Zap70-Siglec11-degron CRASH-IT switch, in which the degron sequence contains the parental zinc finger degron (double hybrid degron depicted in FIGS. 1 and 3), or the parental zinc finger degron with the following mutations: G14N/K21A, G14M/N15R, L17I/K21L, E4R/Q12L, Q12R/K13T, or Q12R/K13V. As a control, primary human T cells modified with the HLA class I restricted CDK4 TCR plus vector control were used. Cells were pretreated with 5 nM lenalidomide or left untreated. Data depict intracellular IFNγ, IL2, TNFα, and cell surface LAMP1 expression of CDK4 TCR+, EGFP intermediate, CD8+ T cells upon co-culture with NKIRTIL006 melanoma cells in the continued absence (E-H) or continued presence of 5 nM lenalidomide (A-D). Dashed horizontal lines indicate cytokine production and degranulation levels of cells modified with a CRASH-IT switch containing the parental zinc finger degron. Error bars represent standard deviation (n=2). SynFinger and vector control groups were compared to the parental zinc finger group using a one-sided t test: *=p<0.05, **=p<0.01, ***=p<0.001, ****=p<0.0001, n.s.=not significant. Data are representative of two independent experiments.
FIG. 6: SynFinger containing CRASH-IT switches enable restoration of cytokine production and degranulation at lower IMID concentrations as compared to zinc finger degrons not according to the invention. (A-D) Primary human T cells modified with the HLA class I restricted CDK4 TCR plus a Zap70-Siglec11-degron CRASH-IT switch, in which the degron sequence contains prior art zinc finger degrons (single hybrid, dual zinc finger degron depicted in FIG. 1), the parental zinc finger degron (double hybrid degron depicted in FIGS. 1 and 3), or the parental zinc finger degron with the following mutations: G14N/K21A, L17I/K21L, or Q12R/K13V, were pretreated with the indicated concentrations of lenalidomide or left untreated. Data depict intracellular IFNγ, IL2, TNFα, and cell surface LAMP1 expression of CDK4 TCR+, EGFP intermediate, CD8+ T cells upon co-culture with NKIRTIL006 melanoma cells in the continued presence or absence of the indicated concentration of lenalidomide (A-D). Error bars represent standard deviation (n=3). Data are representative of two independent experiments. (E) Table depicts EC50Lenalidomide (nM) values of cells in (A-D), and EC50 fold change between the prior art zinc finger degron and a SynFinger containing the Q12R/K13V substitutions.
FIG. 7: Combination of dual substitution sets can further increase lenalidomide sensitivity of SynFinger degron. (A-D) Primary human T cells modified with the HLA class I restricted CDK4 TCR plus a Zap70-Siglec11-degron CRASH-IT switch, in which the degron sequence contains the parental zinc finger degron (double hybrid degron depicted in FIGS. 1 and 3), or the parental zinc finger degron with the following mutations: G14N/K21A, Q12R/K13V, or Q12R/K13V/G14N/K21A, were pretreated with the indicated concentrations of lenalidomide or left untreated. Data depict intracellular IFNγ, IL2, TNFα, and cell surface LAMP1 expression of CDK4 TCR+, EGFP intermediate, CD8+ T cells upon co-culture with NKIRTIL006 melanoma cells in the continued presence or absence of the indicated concentration of lenalidomide (A-D). Error bars represent standard deviation (n=3). Data are representative of two independent experiments.
To test whether the SynFingers that show an improved drug sensitivity in this Jurkat SynFinger library screen also led to an improved sensitivity to low IMID concentrations when expressed in primary human T cells, human peripheral blood T cells were modified to express the CDK4 TCR and indicated SynFinger containing CRASH-IT switch variants (FIG. 5). […]

Row | Substance | EI index (enrichment index) [1] | further results
1 | 73 (LQCHICGFTSRQKGNLLRHIKLH) [compound 73] | 0.03303 | –
2 | 74 (WQCEICGFTCRQKGNLLRHIALH) [compound 74] | 0.03362 | –
3 | 75 (LQCHICGFTCRQHGNLLRHIKLH) [compound 75] | 0.03442 | –
4 | 76 (LQCQICGFTCRRKGNLLRHIKLH) [compound 76] | 0.03445 | –
5 | 77 (LQCEICGFTCRKRGNLLRHIKLH) [compound 77] | 0.03531 | –
6 | 78 (LQCNICGFTCRQLGNLLRHIKLH) [compound 78] | 0.03544 | –
7 | 79 (LQCEICGFTCRKKGNLLRHIILH) [compound 79] | 0.03569 | –
8 | 80 (LQCEICGFTCRQPGNLLRHYKLH) [compound 80] | 0.03685 | –
9 | 81 (LQCEICGFTCRQDGRLLRHIKLH) [compound 81] | 0.03726 | –
10 | 82 (LQCMICGFTCRQKGNLMRHIKLH) [compound 82] | 0.03754 | –
11 | 83 (LQCWICGFTCRQKGNMLRHIKLH) [compound 83] | 0.03839 | –
12 | 84 (LQCEICGFTCRQKGKYLRHIKLH) [compound 84] | 0.03903 | –
13 | 85 (WQCMICGFTCRQKGNLLRHIKLH) [compound 85] | 0.03924 | –
14 | 86 (LQCVICGFQCRQKGNLLRHIKLH) [compound 86] | 0.0393 | –
15 | 87 (LQCEICGFTCRQKQRLLRHIKLH) [compound 87] | 0.0394 | –
16 | 88 (LQCEICGFRCRQKGNLLRHIKKH) [compound 88] | 0.03947 | –
17 | 89 (MQCEICGFTCRQKSNLLRHIKLH) [compound 89] | 0.04065 | –
18 | 90 (LQCEICGFTCRQHGVLLRHIKLH) [compound 90] | 0.04107 | –

Row | Substance | EI index (enrichment index) [1] | further results
19 | 91 (LQCWICGFTCRQKGNLWRHIKLH) [compound 91] | 0.04125 | –
20 | 92 (LQCEICGFTCRQLRNLLRHIKLH) [compound 92] | 0.04129 | –
21 | 93 (LQCEICGFTSRQKGRLLRHIKLH) [compound 93] | 0.04175 | –
22 | 94 (MQCVICGFTCRQKGNLLRHIKLH) [compound 94] | 0.04229 | –
23 | 95 (LQCLICGFTCRQKGNLLRHIRLH) [compound 95] | 0.04285 | –
24 | 96 (LQCEICGFTCRQKLNLLRHIKRH) [compound 96] | 0.04285 | –
25 | 97 (LQCEICGFTCRKKVNLLRHIKLH) [compound 97] | 0.04294 | –
26 | 98 (LQCEICGFKCRQKGNLLRHIKRH) [compound 98] | 0.04302 | –
27 | 99 (LQCEICGFTCRQKGNLLRHINNH) [compound 99] | 0.04339 | –
28 | 100 (LQCEICGFTCRQKGRLLRHIHLH) [compound 100] | 0.04461 | –
29 | LQCEICGFTCRQKGNLIRHILLH [SEQ ID NO: 14] | – | cytokine production at very low lenalidomide concentration [2]: improved cytokine production
30 | LQCEICGFTCRQKMRLLRHIKLH [SEQ ID NO: 4] | – | cytokine production at very low lenalidomide concentration [2]: improved cytokine production
31 | LQCEICGFTCRQKNNLLRHIALH [SEQ ID NO: 6] | – | cytokine production at very low lenalidomide concentration [2]: improved cytokine production
32 | LQCEICGFTCRRTGNLLRHIKLH [SEQ ID NO: 2] | – | cytokine production at very low lenalidomide concentration [2]: improved cytokine production
33 | LQCEICGFTCRRVGNLLRHIKLH [SEQ ID NO: 9] | – | EI ([1]; Jurkat SynFinger screen): 0.006877; cytokine production at very low lenalidomide concentration [2]: improved cytokine production
34 | LQCEICGFTCRRVNNLLRHIALH [Q12R/K13V/G14N/K21A, SynFinger degron with quadruple substitutions] | – | sensitivity of the SynFinger towards lenalidomide ([2]; as compared to SynFinger degrons with Q12R/K13V or G14N/K21A): improved the sensitivity
35 | LQCRICGFTCRLKGNLLRHIKLH [SEQ ID NO: 1] | – | cytokine production at very low lenalidomide concentration [2]: improved cytokine production
36 | YQCEICGFTCRQKGNLLRHIKLH [SEQ ID NO: 108, first hybrid zinc finger domain with only one mutation, substitution L1Y] | – | EI value, times higher as compared to SEQ ID. NO 36 ([1]; single mutation vs dual substitution L1Y/E4V, higher EI = less sensitive to IMiD): 10-15 times; EI value, times higher as compared to SEQ ID. NO 100 ([1]; single mutation vs dual substitution, higher EI = less sensitive to IMiD): at least 5 times
